From patent publication US8178688B2, “Benzamidine derivatives, process for the preparation thereof and pharmaceutical composition comprising the same” (Dong Wha Pharmaceutical Co., Ltd., priority 2004, dated 2012)
Where two headings read alike, the source gives them in different places.

Assays:
ovariectomized ddY mouse = assay: Therapeutic effect in the ovariectomized osteoporetic mouse model (trabecular bone volume of the femur); assay type: in vivo, ddY mice; conditions: Mus musculus, 672 h, 50 mg/kg/day oral gavage for 4 weeks from 4 weeks after ovariectomy, salts (methansulfonic acid or HCl), read-out: Changes on TBV (% changes vs vehicle control)
Procedure: The therapeutic effects of each benzamidine derivates were evaluated on the ovariectomized ddY mouse. Benzamidine derivates were dosed from 4 weeks after operation for 4 weeks and the changes on the trabecular bone volume (TBV) of the femur were observed via histomorphometry.
Female ddY mice (6-wk old upon receipt, SLC, Japan) were used after acclimatization for 7 days. Animals were allocated 5 per polycarbonate cage in a temperature (20-25° C.) and humidity (30-35%) controlled room. Light:dark cycle was 12 hr:12 hr and feed (Samyang, Korea) and water were supplied free to access.
Salts of benzamidine derivates (Methansulfonic acid or HCl) were used for the test substances of this invention. Test substances are dissolved and/or suspended in injectable distilled water and administered at a dosage volume of 10 ml/kg by oral gavage. All test substances are dosed from 4 weeks after operation for 4 weeks at 50 mg/kg/day.
To induce estrogen-deficient osteoporosis, bilateral ovaries are removed and then closed by routine methods. Operation was conduct under Ketamine hydrochloride and xylazine hydrochloride anesthesia.
The left femur of each mouse were separated at sacrifice, and fixed in 10% neutral buffered formalin (NBF), then decalcified in decalcifying solution (24.4% formic acid, and 0.5N sodium hydroxide) for 5 days (mixed decalcifying solution was exchanges once a day for 5 days). After the dexalcification, the femur was embedded in paraffin, sectioned (3˜4 μm) and stained with hematoxylin-eosin stain.
TBV was calculated using automated image analysis (analySIS Image Processing; SIS, Germany) under magnification of ×200 in the uniform area of trochlea epiphyseal regions (growth plate regions were excluded) of prepared histological specimens. TBV was calculated as percentage (%) levels.
The changes of TBV compared to that of vehicle control are calculated as following Equation 1 to help the understanding of the efficacy of test substances. Percentage changes=[((TBV of a−TBV of b)/TBV of b)×100] Equation 1

[1] = tested on: osteoclast differentiation; assay: Inhibitory effects on osteoclast differentiation (co-culture of bone marrow cells with osteoblast, TRAP staining); assay type: cell-based, mice; conditions: co-culture of bone marrow cells and osteoblast, 7 days, TRAP-positive osteoclasts versus controls; for inhibition at 1 µM: Mus musculus, Osteoclast, 168 h, read-out: % inhibitory activity on osteoclastogenesis
Outline: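 Bone marrow cells from 6–8-week male ddY mice co-cultured with neonatal ICR mouse calvarial osteoblasts in α-MEM/FBS with dexamethasone (10^−7M) and vitamin D3 (10^−8M) for 7 days, compound and medium renewed every 2–3 days. TRAP-positive cells with ≥3 nuclei counted; inhibition given as percent of control.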

cells = assay: Cytotoxicity test (MTT); assay type: cell-based; conditions: 10^−6M, 72 hrs, compared with the control group
Procedure: Cytotoxic effect of benzamidine derivatives was evaluated by the experiment described below.
The test substance was diluted in appropriate solvent at 10^−2M concentration. […] Cells to be used in cytotoxitic test were plated on a 96-well microplate in a dose of 1×10^4 cell/100 μL per well and cultured for 72 hrs. 25 μL of MTT [3-(4,5-dimethyl-2-thiazolyl)-2,5-diphenyl-2H-tetrazolium bromide] dissolved in PBS at 2 mg/mL were added before 4 hrs of the end of culture. After reaction, the plates were centrifuged, medium was decanted and 100 μL of DMSO was added to dissolve formazan. Lastly, the absorbance of developed plates was measured at 540 nm.

| SMILES | change in vivo at 50 mg/kg (ovariectomized ddY mouse) | inhibition at 1 µM ([1]; 1 μm) | inhibition at 1 µM ([1]; 1 m) | Survival rates of the cells (cells; MC3T3-E1 cells) | Survival rates of the cells (cells; ST2 cells) | % inhibitory activity on osteoclastogenesis [1] |
| --- | --- | --- | --- | --- | --- | --- |
| Cc1nc(-c2ccc(OCCCCCOc3ccc(C(=N)NO)cc3)cc2)c(C2CCCC2)s1 [Example 43, N-hydroxy-4-(5-[4-(5-cyclopentyl-2-methyl-1,3-thiazol-4-yl)phenoxy]pentoxy)-benzamidine] | 155% | 98.6% | – | – | – | – |
| CNc1nc(-c2ccc(OCCCCCOc3ccc(C(=N)NO)cc3)cc2)c(Cc2ccccc2)s1 [Example 107, N-hydroxy-4-(5-[4-(5-benzyl-2-methylamino-1,3-thiazol-4-yl)phenoxy]pentoxy)-benzamidine] | – | – | 53.2% | 65.2% | 43.9% | – |
| CNc1nc(-c2ccc(OCCCCCOc3ccc(C(=N)NO)cc3)cc2)c(CC2CCCC2)s1 [Example 109, N-hydroxy-4-(5-[4-(5-cyclopentylmethyl-2-methylamino-1,3-thiazol-4-yl)phenoxy]pentoxy)-benzamidine] | – | – | 80.5% | 65.7% | 39.0% | – |
| CCCNc1nc(-c2ccc(OCCCCCOc3ccc(C(=N)NO)cc3)cc2)c(CC2CCCC2)s1 [Example 111, N-hydroxy-4-(5-[4-(5-cyclopentylmethyl-2-propylamino-1,3-thiazol-4-yl)phenoxy]pentoxy)-benzamidine] | 69.3% | – | 99.5% | – | – | – |
| N=C(NO)c1ccc(OCCCCCOc2ccc(-c3nc(NC(=O)c4ccncc4)sc3CC3CCCC3)cc2)cc1 [Example 112, N-hydroxy-4-(5-[4-(5-cyclopentylmethyl-2-(4-pyridylcarbonyl)amino-1,3-thiazol-4-yl)phenoxy]pentoxy)-benzamidine] | – | – | 76.8% | 86.7% | 63.6% | – |
| CCS(=O)(=O)N(C)c1nc(-c2ccc(OCCCCCOc3ccc(C(=N)NO)cc3)cc2)cs1 [Example 118, N-hydroxy-4-(5-[4-(2-(ethanesulfonyl-methyl-amino)-1,3-thiazol-4-yl)phenoxy]pentoxy)-benzamidine] | – | – | 82.9% | 75.3% | 53.2% | – |
| CCN(CCO)c1nc(-c2ccc(OCCCCCOc3ccc(C(=N)NO)cc3)cc2)c(C)s1 [Example 121, N-hydroxy-4-(5-[4-(2-(ethyl-(2-hydroxyethyl)-amino)-5-methyl-1,3-thiazol-4-yl)phenoxy]pentoxy)-benzamidine] | – | – | 69.4% | 100.0% | 41.4% | – |
| Cc1sc(N(C)Cc2ccccc2)nc1-c1ccc(OCCCCCOc2ccc(C(=N)NO)cc2)cc1 [Example 125, N-hydroxy-4-(5-[4-(2-(benzyl-methyl-amino)-5-methyl-1,3-thiazol-4-yl)phenoxy]pentoxy)-benzamidine] | – | – | 73% | 57.6% | 47.9% | – |
| CCc1sc(N(CC)CCO)nc1-c1ccc(OCCCCCOc2ccc(C(=N)NO)cc2)cc1 [Example 130, N-hydroxy-4-(5-[4-(5-ethyl-2-(ethyl-(2-hydroxyethyl)-amino)-1,3-thiazol-4-yl)phenoxy]pentoxy)-benzamidine] | – | – | 55.8% | 100.0% | 37.2% | – |
| CCc1sc(N(C)Cc2ccccc2)nc1-c1ccc(OCCCCCOc2ccc(C(=N)NO)cc2)cc1 [Example 133, N-hydroxy-4-(5-[4-(2-(benzyl-methyl-amino)-5-ethyl-1,3-thiazol-4-yl)phenoxy]pentoxy)-benzamidine] | – | – | 76.6% | 62.6% | 46.4% | – |
| CCc1sc(N(C)Cc2cccnc2)nc1-c1ccc(OCCCCCOc2ccc(C(=N)NO)cc2)cc1 [Example 134, N-hydroxy-4-(5-[4-(5-ethyl-2-(methyl-(pyridin-3-yl-methyl)amino)-1,3-thiazol-4-yl)phenoxy]pentoxy)-benzamidine] | – | – | 63.7% | 43.9% | 37.4% | – |
| CCc1sc(N(CC)Cc2cccnc2)nc1-c1ccc(OCCCCCOc2ccc(C(=N)NO)cc2)cc1 [Example 136, N-hydroxy-4-(5-[4-(5-ethyl-2-(ethyl-(pyridin-3-yl-methyl)amino)-1,3-thiazol-4-yl)phenoxy]pentoxy)-benzamidine] | – | – | 49.2% | 48.5% | 29.9% | – |
| CCc1sc(N(CCO)CCO)nc1-c1ccc(OCCCCCOc2ccc(C(=N)NO)cc2)cc1 [Example 139, N-hydroxy-4-(5-[4-(2-(bis-(2-hydroxyethyl)amino)-5-ethyl-1,3-thiazol-4-yl)phenoxy]pentoxy)-benzamidine] | – | – | 84.1% | 77.4% | 48.1% | – |
| CC(C)c1sc(N(C)Cc2cccnc2)nc1-c1ccc(OCCCCCOc2ccc(C(=N)NO)cc2)cc1 [Example 141, N-hydroxy-4-(5-[4-(5-isopropyl-2-(methyl-(pyridin-3-yl-methyl)amino)-1,3-thiazol-4-yl)phenoxy]pentoxy)-benzamidine] | – | – | 74.8% | 52.8% | 27.9% | – |
| CCCCc1sc(N(C)Cc2cccnc2)nc1-c1ccc(OCCCCCOc2ccc(C(=N)NO)cc2)cc1 [Example 145, N-hydroxy-4-(5-[4-(5-butyl-2-(methyl-(pyridin-3-yl-methyl)amino)-1,3-thiazol-4-yl)phenoxy]pentoxy)-benzamidine] | 91.7% | – | 96.2% | – | – | – |
| CCCCc1sc(N(CCC)CCC)nc1-c1ccc(OCCCCCOc2ccc(C(=N)NO)cc2)cc1 [Example 146, N-hydroxy-4-(5-[4-(5-butyl-2-dipropylamino-1,3-thiazol-4-yl)phenoxy]pentoxy)-benzamidine] | – | – | 94.4% | 88.4% | 38.2% | – |
| CN(Cc1cccnc1)c1nc(-c2ccc(OCCCCCOc3ccc(C(=N)NO)cc3)cc2)c(CC2CCCC2)s1 [Example 147, N-hydroxy-4-(5-[4-(5-cyclopentylmethyl-2-(methyl-(pyridin-3-yl-methyl)amino)-1,3-thiazol-4-yl)phenoxy]pentoxy)-benzamidine] | – | – | 81.1% | 100.0% | 42.4% | – |
| CCCCc1sc(N(C)C)nc1-c1ccc(OCCCCCOc2ccc(C(=N)NO)cc2)cc1 [Example 152, N-hydroxy-4-(5-[4-(5-butyl-2-dimethylamino-1,3-thiazol-4-yl)phenoxy]pentoxy)-benzamidine] | 71.5% | – | 83.8% | – | – | – |
| Cc1sc(N2CCOCC2)nc1-c1ccc(OCCCCCOc2ccc(C(=N)NO)cc2)cc1 [Example 165, N-hydroxy-4-(5-[4-(5-methyl-2-morpholino-1,3-thiazol-4-yl)phenoxy]pentoxy)-benzamidine] | 37.5% | – | 66.9% | – | – | – |
| CCc1sc(N2CCCCC2)nc1-c1ccc(OCCCCCOc2ccc(C(=N)NO)cc2)cc1 [Example 166, N-hydroxy-4-(5-[4-(5-ethyl-2-piperdino-1,3-thiazol-4-yl)phenoxy]pentoxy)-benzamidine] | – | – | – | 71.2% | 52.4% | 81.2% |
| Cc1nc(-c2ccc(OCCCN3CCN(CCCOc4ccc(C(=N)NO)cc4)CC3)cc2)c(C(C)C)s1 [Example 181, N-hydroxy-4-(3-[4-(3-(4-(5-isopropyl-2-methyl-1,3-thiazol-4-yl)-phenoxy)-propyl)-piperazin-1-yl]-propoxy)-benzamidine] | – | – | 54.1% | 99.5% | 36.7% | – |
